Measurements published in patent US8476221B2, “Methods and compositions for the treatment of metabolic disorders” (Halimed Pharmaceuticals, Inc., priority 2011, dated 2013).
Non-standard residues stand in square brackets, D forms with d. Residues, ends and D or L forms follow the SMILES beside them. *: point of attachment. Tle = CC(C)(C)[C@H](N)C(=O)O; X1 = CCNCCCC(=O)*

Tests used:
[1] = Toxicity study in monkeys, serum chemistry (cholesterol, triglycerides, liver enzymes); assay type: in vivo
Description: A study was conducted to evaluate toxicity in monkeys with HPI-363 at doses of 0.05 to 5 mg/kg. The compound was administered as a slow IV push over 20 to 30 seconds. Six animals (3 males and 3 females) approximately 2 years old and weighing 2.1-2.5 kilograms were dosed once daily for 14 days. Blood chemistry was collected on Days 1-15. […] A reduction of 27%-40% in levels of cholesterol and triglycerides respectively from pre-dose was observed over 15 days. The lipid-lowering effect occurred within a 12 hr-period.

[2] = Body weight and food intake in Sprague-Dawley and obese Zucker (fa/fa) rats; assay type: in vivo; settings: for Avg. Wt. Change (g) Days 1-10 / Food Consumption. (g) Days 1-10: 1 mg/kg IV daily Days 1-10; for Avg. Wt. Change (g) Days 11-20 / Food Consumption. (g) Days 11-20: saline Days 11-20 after 1 mg/kg IV daily Days 1-10
Description: Male Sprague-Dawley (SD, Harlan Laboratories) rats (210-220 g at initiation of experiments) and genetically obese Zucker (fa/fa) (ZF, Harlan Laboratories) rats (210-220 g at initiation of experiments) were housed individually under a 12 h:12 h light:dark schedule (lights on at 7:00 AM). All compound administration, animal and food weighing were performed between noon and 1 PM (during the light phase of the animals' circadian illumination schedule). Each rat was provided standard rat chow and water ad libitum throughout the experiments.
Each animal received either 1 mg/kg HPI-363 dissolved in saline IV (Treated) or saline (Vehicle or Untreated) for ten consecutive days followed by daily injections of saline for ten additional days. At the start of the experiment, each animal was weighed and single-housed with rat chow and water, with subsequent weighing occurring at 24 hr increments for 20 days. For food intake, 100 g of rat chow was placed in each animal's hopper and leftover chow in the hopper was collected and weighed every 24 hr for 20 days at the time of animal weighing. Chow was then replenished to 100 g each day. As a monitor of the general health of the animals, rats were observed twice daily.

NT2 receptor = NT2 receptor (Homo sapiens, UniProt O95665); settings: receptor binding studies; cited from earlier work
NT1 receptor = NT1 receptor (Homo sapiens, UniProt P30989); settings: receptor binding studies; cited from earlier work
Sequence of NT1 receptor (P30989 whole entry): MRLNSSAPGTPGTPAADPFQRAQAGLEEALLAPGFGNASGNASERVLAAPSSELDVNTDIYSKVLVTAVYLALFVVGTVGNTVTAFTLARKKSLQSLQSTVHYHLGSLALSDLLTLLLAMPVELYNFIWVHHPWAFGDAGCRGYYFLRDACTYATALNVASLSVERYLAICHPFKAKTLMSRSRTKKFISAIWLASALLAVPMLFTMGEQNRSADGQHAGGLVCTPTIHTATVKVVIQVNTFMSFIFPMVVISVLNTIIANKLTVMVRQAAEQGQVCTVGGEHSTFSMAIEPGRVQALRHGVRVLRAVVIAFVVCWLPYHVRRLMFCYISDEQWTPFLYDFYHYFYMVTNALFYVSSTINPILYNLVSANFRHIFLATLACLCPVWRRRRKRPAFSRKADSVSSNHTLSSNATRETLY

Sequence of NT2 receptor (O95665 whole entry): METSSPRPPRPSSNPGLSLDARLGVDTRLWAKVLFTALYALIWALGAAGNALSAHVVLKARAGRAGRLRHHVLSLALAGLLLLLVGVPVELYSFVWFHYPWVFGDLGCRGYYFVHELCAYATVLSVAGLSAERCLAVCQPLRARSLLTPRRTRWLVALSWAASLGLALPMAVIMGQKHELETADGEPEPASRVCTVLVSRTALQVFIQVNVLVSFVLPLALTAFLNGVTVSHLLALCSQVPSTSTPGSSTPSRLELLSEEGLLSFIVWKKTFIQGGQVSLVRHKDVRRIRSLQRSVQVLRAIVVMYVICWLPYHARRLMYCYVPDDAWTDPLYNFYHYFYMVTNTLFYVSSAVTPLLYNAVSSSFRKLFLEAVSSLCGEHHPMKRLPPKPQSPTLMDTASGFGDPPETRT

Row | Molecule | Time in which the lipid-lowering effect occurred ([1]; 0.05 to 5 mg/kg IV) | Effect on cholesterol and triglycerides (serum chemistry) ([1]; 0.05 to 5 mg/kg IV once daily for 14 days) | Liver enzymes ([1]; 0.05 to 5 mg/kg IV once daily for 14 days, normalized within the 15 days of the study) | Reduction in levels of cholesterol from pre-dose ([1]; 0.05 to 5 mg/kg slow IV push once daily for 14 days, over 15 days) | General health, observed twice daily ([2]; SD and ZF rats, 20 days) | Avg. Wt. Change (g) Days 1-10 ([2]; Sprague-Dawley (SD) rats) | Food Consumption. (g) Days 1-10 ([2]; Sprague-Dawley (SD) rats) | Avg. Wt. Change (g) Days 11-20 ([2]; Sprague-Dawley (SD) rats) | Food Consumption. (g) Days 11-20 ([2]; Sprague-Dawley (SD) rats) | Avg. Wt. Change (g) Days 1-10 ([2]; Zucker fa/fa (ZF) rats) | Food Consumption. (g) Days 1-10 ([2]; Zucker fa/fa (ZF) rats) | Avg. Wt. Change (g) Days 11-20 ([2]; Zucker fa/fa (ZF) rats) | Food Consumption. (g) Days 11-20 ([2]; Zucker fa/fa (ZF) rats) | Food intake ([2]; both SD and ZF rats, 1 mg/kg IV Days 1-10) | Weight gain ([2]; both SD and ZF rats, 1 mg/kg IV Days 1-10, maintained after cessation (Days 11-20)) | Affinity for the NT2 receptor (NT2 receptor) | Affinity for the NT1 receptor (NT1 receptor)
1 | CCNCCCC(=O)N[C@@H](CCCNC(=N)N)C(=O)N1CCC[C@H]1C(=O)N[C@@H](Cc1c[nH]c2ccccc12)C(=O)N[C@H](C(=O)N[C@@H](CC(C)C)C(=O)O)C(C)(C)C [HPI-363] (X1-RPW[Tle]L-OH) | ≤ 12 h | dose dependent effect | transient rise | 27% | No deviations from normal affect | 17.4 g | 148.5 g | 40.0 g | 222.0 g | 54.6 g | 252.7 g | 88.5 g | 402.0 g | decreased food intake | inhibition of weight gain | – | –
2 | Lys-(psiCH2NH)-Lys-Pro-Trp-Ter-Leu-Leu-OEt [PD149163] | – | – | – | – | – | – | – | – | – | – | – | – | – | – | – | no detectable affinity | has affinity
